As usually defined, the IC50 is the concentration that inhibits the measured activity by half. A high value points to a need for much substance.

The target in assay [1] is HLA DRB1 *0101 (Homo sapiens, UniProt P01903+P01911, A100R/D57E/F55L/F60I/F76Y/I96L/L162R/M171V/P40L/Q125E/R42F/V115G/Y59C). Description: IC50nM to purified HLA | DRB1 *0101. The protocol:
(§1) Table printed on a drawing sheet, FIG. 1 (contd.)
Head of the field: IC50nM to purified HLA | DRB1 *0101
(§2) First copying reader's note: Continued from an earlier sheet of FIG. 1; decimal commas as printed, analog names encode substituted residues and positions, and some values are printed in italics or bold and some SEQ ID NOs underlined without a legend on this sheet.
Where the first naming reader finds the target: head: IC50nM to purified HLA | DRB1 *0101

In assay [2] the target is HLA DRB1 *0404 (Homo sapiens, UniProt P01903+P01911, A100R/A169T/F76Y/I96L/K127E/L162R/M171V/N62H/P40V/Q125Y/R42H/S133A/S149N/S66Y/V209L/W38E). Kind of assay: IC50nM to purified HLA | DRB1 *0404. How it is done: as §1
Head of the field: IC50nM to purified HLA | DRB1 *0404
as §2
Where the first naming reader finds the target: head: IC50nM to purified HLA | DRB1 *0404

The target in assay [3] is HLA DRB1 *0405 (Homo sapiens, UniProt P01903+P01911, A100R/A169T/D86S/F76Y/I96L/K127E/L162R/M171V/N62H/P40V/Q125Y/R42H/S133A/S149N/S66Y/V115G/V209L/W38E). Description: IC50nM to purified HLA | DRB1 *0405. How it is done:
as §1
Head of the field: IC50nM to purified HLA | DRB1 *0405
as §2
Where the first naming reader finds the target: head: IC50nM to purified HLA | DRB1 *0405

In assay [4] the target is HLA DRB1 *0401 (Homo sapiens, UniProt P01903+P01911, A100K/A169T/F76Y/I96L/K127E/L162R/M171V/N62H/P40V/Q125Y/R42H/S133A/S149N/S66Y/V115G/V209L/W38E). Kind of assay: IC50nM to purified HLA | DRB1 *0401. How it is done: as §1
Head of the field: IC50nM to purified HLA | DRB1 *0401
as §2
Where the first naming reader finds the target: head: IC50nM to purified HLA | DRB1 *0401

Assay [5] has as its target HLA DRB1 *1501 (Homo sapiens, UniProt P01903+P01911). Description: IC50nM to purified HLA | DRB1 *1501. How it is done:
as §1
Head of the field: IC50nM to purified HLA | DRB1 *1501
as §2
Where the first naming reader finds the target: head: IC50nM to purified HLA | DRB1 *1501

The target of assay [6] is HLA DRB1 *1101 (Homo sapiens, UniProt P01903+P01911, A100R/A169T/A87E/I96F/K41T/L162R/M171V/P40S/Q125H/Q178H/Q39Y/Q99D/R42S/S66Y/T262R/V115G/W38E). Description: IC50nM to purified HLA | DRB1 *1101. The protocol:
as §1
Head of the field: IC50nM to purified HLA | DRB1 *1101
as §2
Where the first naming reader finds the target: head: IC50nM to purified HLA | DRB1 *1101

The target of assay [7] is HLA DRB1 *0901 (Homo sapiens, UniProt P01903+P01911, A100R/A103E/D57H/D86V/F55Y/F60I/F76Y/I96F/K127E/L162R/M171V/P40D/Q125H/Q99R/R33Q/R42F/S133A/S66N/T210M/V115G/W38K/Y107V/Y59G/Y89S). Description: IC50nM to purified HLA | DRB1 *0901. The protocol:
as §1
Head of the field: IC50nM to purified HLA | DRB1 *0901
as §2
Where the first naming reader finds the target: head: IC50nM to purified HLA | DRB1 *0901

Assay [8] deals with HLA DRB1 *0802 (Homo sapiens, UniProt P01903+P01911, A100R/A103L/A169T/F76Y/H45Y/I96F/K41T/L162R/M171V/P40S/Q125H/Q178H/Q39Y/Q99D/R218S/R42G/S66Y/V115G/W38E). Kind of assay: IC50nM to purified HLA | DRB1 *0802. How it is done:
as §1
Head of the field: IC50nM to purified HLA | DRB1 *0802
as §2
Where the first naming reader finds the target: head: IC50nM to purified HLA | DRB1 *0802

Assay [9] deals with HLA DRB1 *0301 (Homo sapiens, UniProt P01903+P01911, A100K/A102G/A103R/A169T/F55Y/I96L/K41T/L162R/M171V/P40S/Q125H/Q178H/Q39Y/R42S/S66N/T106N/T262R/W38E/Y61H). Kind of assay: IC50nM to purified HLA | DRB1 *0301. How it is done: as §1
Head of the field: IC50nM to purified HLA | DRB1 *0301
as §2
Where the first naming reader finds the target: head: IC50nM to purified HLA | DRB1 *0301

Assay [10] deals with HLA DRB1 *1302 (Homo sapiens, UniProt P01903+P01911, A100E/A169T/K41T/L162R/M171V/P40S/Q125H/Q178H/Q39Y/Q99D/R42S/S66N/T262R/V115G/W38E/Y61H). Description: IC50nM to purified HLA | DRB1 *1302. The protocol: as §1
Head of the field: IC50nM to purified HLA | DRB1 *1302
as §2
Where the first naming reader finds the target: head: IC50nM to purified HLA | DRB1 *1302

The target in assay [11] is HLA DRB4 *0101 (Homo sapiens, UniProt P01903+P13762, G164S). Description: IC50nM to purified HLA | DRB4 *0101. How it is done:
as §1
Head of the field: IC50nM to purified HLA | DRB4 *0101
as §2
Where the first naming reader finds the target: head: IC50nM to purified HLA | DRB4 *0101

The target in assay [12] is HLA DRB5 *0101 (Homo sapiens, UniProt P01903+Q30154). Kind of assay: IC50nM to purified HLA | DRB5 *0101. How it is done:
as §1
Head of the field: IC50nM to purified HLA | DRB5 *0101
as §2
Where the first naming reader finds the target: head: IC50nM to purified HLA | DRB5 *0101

For assay [13], the target named is HLA DRB1 *0701 (Homo sapiens, UniProt P01903+P01911, A100R/A102G/A103Q/D57E/D86V/E43K/F76Y/K127E/L162R/M171V/P40G/Q125H/Q99D/R33Q/R42Y/R54Q/S133A/S66F/T210M/V115G/Y107V/Y59L/Y89S). Description: IC50nM to purified HLA | DRB1 *0701. The protocol:
as §1
Head of the field: IC50nM to purified HLA | DRB1 *0701
as §2
Where the first naming reader finds the target: head: IC50nM to purified HLA | DRB1 *0701

Where no end group is shown, it is not given here.

Chain of HLA DRB4 *0101 (P01903 26-254 limits assumed): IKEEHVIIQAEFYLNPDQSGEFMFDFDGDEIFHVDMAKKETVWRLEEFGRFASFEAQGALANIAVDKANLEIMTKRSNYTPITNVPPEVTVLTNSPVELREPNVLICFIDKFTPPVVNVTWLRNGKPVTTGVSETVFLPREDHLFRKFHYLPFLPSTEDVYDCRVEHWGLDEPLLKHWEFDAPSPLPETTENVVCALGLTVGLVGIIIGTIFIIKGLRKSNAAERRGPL
Chain of HLA DRB4 *0101 (P13762 whole entry G164S): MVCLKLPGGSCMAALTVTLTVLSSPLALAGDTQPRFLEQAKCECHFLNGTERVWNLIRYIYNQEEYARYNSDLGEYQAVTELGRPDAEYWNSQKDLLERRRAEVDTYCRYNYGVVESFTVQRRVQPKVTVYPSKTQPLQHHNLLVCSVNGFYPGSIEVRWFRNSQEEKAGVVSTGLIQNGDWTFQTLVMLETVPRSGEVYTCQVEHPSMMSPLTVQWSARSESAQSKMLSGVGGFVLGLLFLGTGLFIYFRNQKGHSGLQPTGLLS
Chain of HLA DRB1 *1101 (P01903 26-254 limits assumed, other chains not shown): as the sequence (P01903 26-254 limits assumed) above
Chain of HLA DRB1 *1302 (P01903 26-254 limits assumed, other chains not shown): as the sequence (P01903 26-254 limits assumed) above
Chain of HLA DRB1 *0301 (P01903 26-254 limits assumed, other chains not shown): as the sequence (P01903 26-254 limits assumed) above

Turning to AAANFVAAFTLKADA [SEQ ID NO: 57], the IC50 is 10 nM in [1]; 12 nM in assay [2]; 13 nM in assay [3]; 4.3 nM in assay [4]; 24 nM in [5]; 74 nM in assay [6].

Turning to AAANFVAAYTLKADA [SEQ ID NO: 56], the IC50 in [7] was 44 nM; in assay [8], 22 nM; in assay [9], 1530 nM; in [2] it was 15 nM; in assay [4], 6.3 nM; in [5], 12 nM. Besides, the IC50 in assay [6] turned out to be 100 nM; in [10], 819 nM.

On to AAANFVAAWTLKAEA [SEQ ID NO: 59], for which the 50% inhibitory concentration (IC50) was 1.8 nM in assay [1]; 19 nM in assay [8]; 723 nM in assay [9]; 221 nM in assay [11]; 3.8 nM in assay [3]; 31 nM in [5]. Moreover, the IC50 in assay [10] came out at 1040 nM; in assay [12], 15 nM.

With AAAIFVAANTLHAAA [SEQ ID NO: 72], the IC50 in assay [1] turned out to be 7.3 nM; in assay [7] it was 75 nM; in assay [11] it was 109 nM; in assay [2] it was 4.5 nM; in [4] it was 2.7 nM; in assay [13] it was 109 nM. In addition, the values for the IC50 in assay [5] and in [10] were 17 nM and 65 nM, respectively.

AAAIFVAAYTLHAAA [SEQ ID NO: 70]: the IC50 in [1] came out at 5.7 nM; in assay [8] it was 9.4 nM; in assay [9], 301 nM; in [11] it was 346 nM; in [13] it was 95 nM; in [5] it was 3.2 nM. The IC50 was found to be 19 nM in assay [6] and 1950 nM in assay [10].

Regarding AAAQFVAAFTLHAAA [SEQ ID NO: 66], the IC50 in assay [7] came out at 31 nM; in [8] it was 13 nM; in [11] it was 97 nM; in [2], 4.4 nM; in assay [3] it was 7.7 nM; in [4], 2.7 nM.

Turning to AAAIFVAAFTLHAAA [SEQ ID NO: 71], the 50% inhibitory concentration (IC50) was found to be 12 nM in [1]; 80 nM in [7]; 442 nM in assay [9]; 117 nM in [11]; 2.7 nM in assay [2]; 14 nM in assay [3]. Further, the IC50 in assay [13] turned out to be 206 nM; in assay [5] it was 9.7 nM; in assay [6] it was 12 nM; in assay [12], 21 nM.

Take AAANFVAAWTLKADA [SEQ ID NO: 55]: the IC50 in assay [1] worked out at 7.6 nM; in assay [8], 35 nM; in assay [2] it was 9.7 nM; in [4] it was 5.5 nM; in assay [13], 52 nM; in assay [6], 41 nM. Also, in assay [12], half-maximal inhibition (IC50) required 24 nM.

Consider AAANFVAANTLHAAA [SEQ ID NO: 54], for which the IC50 in assay [1] came to 6.1 nM; in [11], 1110 nM; in assay [4] it was 3.4 nM; in assay [13], 84 nM; in assay [5], 114 nM; in [10], 44 nM. This sequence also showed an IC50 in [12] of 43 nM.

As for AAAQFVAANTLHAAA [SEQ ID NO: 67], the IC50 in [8] was found to be 24 nM; in assay [9] it was 319 nM; in assay [4] it was 3.3 nM; in assay [13], 76 nM; in assay [5] it was 78 nM; in assay [6], 44 nM.

For AAAQFVAAYTLHAAA [SEQ ID NO: 65], the IC50 in [1] stood at 4.2 nM; in assay [7], 21 nM; in assay [8] it was 5.1 nM; in [9] it was 153 nM; in [11], 428 nM; in [3], 22 nM. Moreover, the IC50 in assay [4] stood at 2.2 nM; in [5] it was 3.6 nM; in assay [6], 17 nM; in assay [10], 700 nM; in assay [12], 24 nM.

In the case of AAANFVAANTLKADA [SEQ ID NO: 58], the IC50 in [7] worked out at 109 nM; in assay [11] it was 6320 nM; in [4] it was 9.7 nM; in assay [5], 296 nM; in [10] it was 269 nM.

On to AAANFVAANTLKAEA [SEQ ID NO: 62], for which the half-inhibitory concentration (IC50) in [9] came out at 1740 nM; in assay [11], 964 nM; in [2] it was 11 nM; in assay [13], 107 nM; in assay [6] it was 78 nM; in assay [12], 34 nM.

For the sequence AAANFVAAFTLHAAA [SEQ ID NO: 53], the IC50 in [1] came out at 4.7 nM; in assay [7], 41 nM; in assay [8] it was 12 nM; in assay [9], 254 nM; in assay [11], 111 nM; in [3], 12 nM. Besides, the IC50 in [4] came out at 1.6 nM; in assay [13] it was 52 nM.

For AAANFVAAYTLKAEA [SEQ ID NO: 60], the half-maximal inhibitory concentration (IC50) worked out at 43 nM in assay [7]; 21 nM in assay [8]; 1070 nM in [9]; 718 nM in [11]; 6.1 nM in [2]; 13 nM in [4]. In addition, the IC50 worked out at 11 nM in assay [5] and 590 nM in assay [10].

Turning to AAAQFVAAWTLKAAA [SEQ ID NO: 63], the IC50 in assay [1] worked out at 5.1 nM; in assay [9], 271 nM; in assay [11], 259 nM; in assay [3], 21 nM; in assay [4], 1.6 nM; in assay [5], 17 nM. Besides, the results for the IC50 in assay [6] and in [12] were 12 nM and 5.2 nM, respectively.

These data come from patent US9789181B2, “PAN-DR binding polypeptides and uses thereof” (Epimmune Inc., priority 2009, dated 2017).
